Data taken from publication PMC4844700, “Rifampin phosphotransferase is an unusual antibiotic resistance kinase” (Nature Communications, 2016).

Experiments:
[1] = target: T1, RPH-Lm (rifampin phosphotransferase) (Listeria monocytogenes, UniProt A0A0X1KHF9); assay: SAXS, ensemble optimization; format: binding; settings: Mg2+; 20 mM Hepes pH 7.5, 100 mM KCl; 10 °C; 10-fold molar excess; non-hydrolysable ATP analogue
T1 construct: full-length from E. coli; crystals and SAXS: His6-tag removed by TEV (pMCSG53 for crystals); kinetics: pET19Tb:rph-Lm; monomer; ATP-grasp 1-314, RIF-BD 327-754, swivel 767-865, catalytic His825

[2] = target: T1, RPH-Lm (rifampin phosphotransferase); assay: X-ray crystallography; settings: crystallized with 5 mM RIF and 5 mM ATP; RIF-binding domain; 2.85 Å
[3] = target: T1, RPH-Lm (rifampin phosphotransferase); assay: X-ray crystallography (SAD); settings: Se-Met protein; 5 mM RIF; pH 6; RIF-binding domain; 2.70 Å
[4] = tested on: CO[C@H]1/C=C/O[C@@]2(C)Oc3c(C)c(O)c4c(O)c(c(/C=N/N5CCN(C)CC5)c(O)c4c3C2=O)NC(=O)/C(C)=C\C=C\[C@H](C)[C@H](O)[C@@H](C)[C@@H](O)[C@@H](C)[C@H](OC(C)=O)[C@@H]1C; assay: purified protein; settings: ATP at five times its Km, 50 mM Hepes pH 7.5, 5 mM MgCl2, 40 mM NH4Cl, 25 °C, 11.3 μM enzyme

T1 sequence (A0A0X1KHF9 whole entry): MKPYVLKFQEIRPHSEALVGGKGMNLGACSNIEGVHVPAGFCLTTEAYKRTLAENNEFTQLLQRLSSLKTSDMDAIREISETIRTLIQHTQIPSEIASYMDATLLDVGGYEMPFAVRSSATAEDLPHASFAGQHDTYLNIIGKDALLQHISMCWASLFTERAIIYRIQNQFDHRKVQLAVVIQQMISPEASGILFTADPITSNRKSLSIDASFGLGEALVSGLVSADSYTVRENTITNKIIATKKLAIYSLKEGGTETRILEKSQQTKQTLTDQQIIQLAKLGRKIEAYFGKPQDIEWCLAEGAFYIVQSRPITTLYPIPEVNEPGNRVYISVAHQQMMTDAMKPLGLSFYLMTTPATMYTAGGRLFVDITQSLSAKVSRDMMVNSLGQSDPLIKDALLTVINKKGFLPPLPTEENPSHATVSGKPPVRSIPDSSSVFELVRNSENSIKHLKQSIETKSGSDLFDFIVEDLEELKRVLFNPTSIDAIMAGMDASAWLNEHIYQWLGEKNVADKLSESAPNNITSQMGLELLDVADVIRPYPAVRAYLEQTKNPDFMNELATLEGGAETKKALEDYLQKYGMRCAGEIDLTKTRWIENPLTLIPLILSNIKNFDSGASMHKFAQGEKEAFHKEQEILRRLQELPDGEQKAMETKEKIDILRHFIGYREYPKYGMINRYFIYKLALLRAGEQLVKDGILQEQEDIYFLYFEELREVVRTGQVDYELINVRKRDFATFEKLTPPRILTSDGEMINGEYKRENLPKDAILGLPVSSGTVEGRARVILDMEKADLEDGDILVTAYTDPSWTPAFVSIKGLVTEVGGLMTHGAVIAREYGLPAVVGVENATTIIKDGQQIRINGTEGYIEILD

Molecule: Nc1ncnc2c1ncn2[C@@H]1O[C@H](COP(=O)(O)OP(=O)(O)NP(=O)(O)O)[C@@H](O)[C@H]1O [AMP-PnP]
- SAXS, ensemble optimization [1]: RPH-Lm bound to either analogue showed an increase in the ATP-grasp engaged population

Molecule: Nc1ncnc2c1ncn2[C@@H]1O[C@H](COP(=O)(O)CP(=O)(O)OP(=O)(O)O)[C@@H](O)[C@H]1O [AMP-cPP]
- SAXS, ensemble optimization [1]: RPH-Lm bound to either analogue showed an increase in the ATP-grasp engaged population

Molecule: CO[C@H]1/C=C/O[C@@]2(C)Oc3c(C)c(O)c4c(O)c(c(/C=N/N5CCN(C)CC5)c(O)c4c3C2=O)NC(=O)/C(C)=C\C=C\[C@H](C)[C@H](OP(=O)(O)O)[C@@H](C)[C@@H](O)[C@@H](C)[C@H](OC(C)=O)[C@@H]1C [RIF-P]
- X-ray crystallography [2]: 5FBU (RPH-Lm·RIF-P)

Molecule: CO[C@H]1/C=C/O[C@@]2(C)Oc3c(C)c(O)c4c(O)c(c(/C=N/N5CCN(C)CC5)c(O)c4c3C2=O)NC(=O)/C(C)=C\C=C\[C@H](C)[C@H](O)[C@@H](C)[C@@H](O)[C@@H](C)[C@H](OC(C)=O)[C@@H]1C [RIF]
- X-ray crystallography (SAD) [3]: 5FBT (RPH-Lm·RIF)

Molecule: RPH-Lm (rifampin phosphotransferase) (Listeria monocytogenes serotype 4b str. F2365)
- Km [4]: 0.57 ± 0.15 µM
- kcat [4]: 2.25 ± 0.17 s⁻¹
- kcat/Km [4]: 3.94e+06 M⁻¹ s⁻¹
